Legend:
weeds [1] = experiment: Pre-emergence test, action against weeds; assay type: in vivo; conditions: soil sprayed about 24 hours after sowing, rated after three weeks vs untreated control
Description: (§1) Solvent: 5 parts by weight of acetone
(§2) Emulsifier: 1 part by weight of alkylaryl polyglycol ether
To produce a suitable preparation of active compounds, 1 part by weight of active compound is mixed with the stated amount of solvent, the stated amount of emulsifier is added and the concentrate is diluted with water to the desired concentration.
Seeds of the test plants are sown in normal soil. After about 24 hours, the soil is sprayed with the preparation of active compounds such that the particular amounts of active compound desired are applied per unit area. The concentration of the spray liquor is chosen so that the particular amounts of active compound desired are applied in 1000 l of water/ha.
(§3) After three weeks, the degree of damage to the plants is rated in % damage in comparison to the development of the untreated control.
(§4) 0%=no effect (like untreated control)

weeds [2] = experiment: Post-emergence test, activity against weeds; assay type: in vivo; conditions: test plants of 5-15 cm sprayed, rated after three weeks vs untreated control
Description: as §1, §2
To produce a suitable preparation of active compound, 1 part by weight of active compound is mixed with the stated amount of solvent, the stated amount of emulsifier is added and the concentrate is diluted with water to the desired concentration.
Test plants of a height of 5-15 cm are sprayed with the preparation of active compound such that the particular amounts of active compound desired are applied per unit area. The concentration of the spray liquor is chosen so that the particular amounts of active compound desired are applied in 1000 l of water/ha.
as §3, §4

melting point [°C]	Compound	action against weeds (degree of damage to the plants) (weeds [1])	activity against weeds (degree of damage to the plants) (weeds [2])
237	O=c1cc(C(F)(F)F)[nH]c(=O)n1-c1ccc(OCc2ccc(Cl)cc2)cc1[N+](=O)[O-] [Example 1, 1-[4-(4-chloro-phenylmethoxy)-2nitrophenyl]-4-trifluoromethyl-3,6-dihydro-2,6-dioxo-1(2H)-pyrimidin]		
209	O=c1cc(C(F)(F)F)[nH]c(=O)n1-c1ccc(OCc2ccc(Cl)nc2)cc1[N+](=O)[O-] [Example 2, 1-[4-(2-chloro-pyridin-5-yl-methoxy)-2-nitrophenyl]-4-trifluoromethyl-3,6-dihydro-2,6-dioxo-1(2H)-pyrimidine]		
159	Cn1c(C(F)(F)F)cc(=O)n(-c2ccc(OCc3ccc(Cl)cc3)cc2[N+](=O)[O-])c1=O [Example 3, 1-[4-(4-chloro-phenylmethoxy)-2-nitrophenyl]-3-methyl-4-trifluoromethyl-3,6-dihydro-2,6-dioxo-1(2H)-pyrimidine]	strong action	
193	Nn1c(C(F)(F)F)cc(=O)n(-c2ccc(OCc3ccc(Cl)nc3)cc2[N+](=O)[O-])c1=O [Example 4, 3-amino-1-[4-(2-chloro-pyridin-5-yl-methoxy)-2-nitro-phenyl]-4-trifluoromethyl-3,6-dihydro-2,6-dioxo-1(2H)-pyrimidine]		
166	Cn1c(C(F)(F)F)cc(=O)n(-c2ccc(OCc3ccc(Cl)cc3)cc2N)c1=O [Example 5, 1-[2-amino-4-(4-chloro-phenylmethoxy)-phenyl]-3-methyl-4-trifluoromethyl-3,6-dihydro-2,6-dioxo-1(2H)-pyrimidine]	strong action	strong activity
230	CC(=O)Nc1cc(OCc2ccc(Cl)cc2)ccc1-n1c(=O)cc(C(F)(F)F)n(C)c1=O [Example 7, 1-[2-acetylamino-4-(4-chloro-phenylmethoxy)-phenyl]-3-methyl-4-trifluoromethyl-3,6-dihydro-2,6-dioxo-1(2H)-pyrimidine]	strong action	strong activity
